Assay results from US11840497B2, “4-(p-quinonyl)-2-hydroxybutanamide derivatives for treatment of mitochondrial diseases” (PTC Therapeutics, Inc., priority 2007, dated 2023).

Legend:
Assay type in all cases: cell-based
[1] = system: Human dermal fibroblasts from Friedreich's Ataxia patients; experiment: Rescue of BSO-stressed FRDA fibroblasts (Example A); conditions: FRDA fibroblasts GM04078, 1 mM BSO, read-out: protection against FRDA, EC50
[2] = system: human dermal fibroblasts from Huntington's patients; experiment: Rescue of BSO-stressed fibroblasts from Huntington's patients (Example B); conditions: Fibroblast, Huntington's fibroblasts GM 04281, screen as Example A, read-out: protection against Hungtington's, EC50
Description: The compounds were tested for their ability to rescue human dermal fibroblasts from Huntington's patients from oxidative stress.

[3] = system: human dermal fibroblasts from LHON patients; experiment: Rescue of BSO-stressed fibroblasts from LHON patients (Example C); conditions: Fibroblast, LHON fibroblasts GM03858, screen as Example A, read-out: protection against LHON, EC50
Description: The compounds were tested for their ability to rescue human dermal fibroblasts from LHON patients from oxidative stress.

[4] = system: human dermal fibroblasts from Parkinson's Disease patients; experiment: Rescue of BSO-stressed fibroblasts from Parkinson's Disease patients (Example D); conditions: Fibroblast, PD fibroblasts AG20439, screen as Example A, read-out: protection against PD, EC50
Description: The compounds were tested for their ability to rescue human dermal fibroblasts from Parkinson's Disease patients from oxidative stress.

[5] = system: human dermal fibroblasts from CoQ10 deficient patients; experiment: Rescue of stressed fibroblasts from CoQ10 deficient patients (Example E); conditions: Fibroblast, fibroblasts harboring a CoQ2 mutation, screen similar to Example A, read-out: protection against CoQ10 deficiency, EC50
Description: Compounds of the invention were tested using a screen similar to the one described in Example A, but substituting FRDA cells with cells obtained from CoQ10 deficient patients harboring a CoQ2 mutation.

Measured: EC50

CC1=C(C)C(=O)C(CCC(C)(O)C(=O)NCCOCCO)=C(C)C1=O (stereo not shown) [Example 25, 2-Hydroxy-N-(2-(2-hydroxyethoxy)ethyl)-2-methyl-4-(2,4,5-trimethyl-3,6-dioxocyclohexa-1,4-dienyl)butanamide]
not listed: [5]
< 100 nM: all other assays above

CC1=C(C)C(=O)C(CCC(C)(O)C(=O)NCCO)=C(C)C1=O (stereo not shown) [Example 20, 2-Hydroxy-N-(2-hydroxyethyl)-2-methyl-4-(2,4,5-trimethyl-3,6-dioxocyclohexa-1,4-dienyl)butanamide]
< 100 nM: all assays above

CC1=C(C)C(=O)C(CCC(C)(O)C(=O)NCCN(C)C)=C(C)C1=O (stereo not shown) [Example 37, N-(2-(Dimethylamino)ethyl)-2-hydroxy-2-methyl-4-(2,4,5-trimethyl-3,6-dioxocyclohexa-1,4-dienyl)butanamide]
< 100 nM: all assays above

CC1=C(C)C(=O)C(CCC(C)(O)C(=O)NCCc2ccc(O)cc2)=C(C)C1=O (stereo not shown) [Example 36, N-(4-Hydroxyphenethyl)-2-hydroxy-2-methyl-4-(2,4,5-trimethyl-3,6-dioxocyclohexa-1,4-dienyl)butanamide]
not listed: [5]
< 100 nM: all other assays above

CC1=C(C)C(=O)C(CCC(C)(O)C(=O)N2CCN(Cc3ccccc3)CC2)=C(C)C1=O (stereo not shown) [Example 15, 2-(4-(4-Benzylpiperazin-1-yl)-3-hydroxy-3-methyl-4-oxobutyl)-3,5,6-trimethylcyclohexa-2,5-diene-1,4-dione]
not listed: [5]
< 100 nM: all other assays above
